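Each compound was tested at five concentrations against cells in 96-well plates for 48 hours. GI50 = concentration required for 50% inhibition of growth.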 Activity calls are given as the source filed them. Cut-off read from the data, not from the text of the source: active = GI50 up to about 1.1 µM and inactive = higher.
Legend:
Test in all cases: NCI-60 cell line screen, 48 h
NCI-H23 = tested on: NCI-H23
A549 = tested on: A549
SK-MEL-2 = tested on: SK-MEL-2
Hs-578T = tested on: Hs-578T
SF-268 = tested on: SF-268
RXF 393 = tested on: RXF 393
HL-60 = tested on: HL-60
KM12 = tested on: KM12
OVCAR-5 = tested on: OVCAR-5
SW-620 = tested on: SW-620
NCI-H522 = tested on: NCI-H522
CCRF-CEM = tested on: CCRF-CEM
IGROV-1 = tested on: IGROV-1
UACC-257 = tested on: UACC-257
HOP-62 = tested on: HOP-62
SK-OV-3 = tested on: SK-OV-3
SF-295 = tested on: SF-295
M14 = tested on: M14
SK-MEL-28 = tested on: SK-MEL-28
CAKI-1 = tested on: CAKI-1

Structure (SMILES)	GI50 (NCI-H23)	GI50 (A549)	GI50 (SK-MEL-2)	GI50 (Hs-578T)	GI50 (SF-268)	GI50 (RXF 393)	GI50 (HL-60)	GI50 (KM12)	GI50 (OVCAR-5)	GI50 (SW-620)	GI50 (NCI-H522)	GI50 (CCRF-CEM)	GI50 (IGROV-1)	GI50 (UACC-257)	GI50 (HOP-62)	GI50 (SK-OV-3)	GI50 (SF-295)	GI50 (M14)	GI50 (SK-MEL-28)	GI50 (CAKI-1)
COc1ccc2c(Cc3c4ccccc4cc4ccccc34)cncc2c1O	2.37 µM (inactive)	3.44 µM (inactive)	2.87 µM (inactive)	1.58 µM (inactive)	3.79 µM (inactive)	3.4 µM (inactive)	1.87 µM (inactive)	1.93 µM (inactive)	13.5 µM (inactive)	0.857 µM (active)	0.698 µM (active)	0.36 µM (active)	2.92 µM (inactive)	2.32 µM (inactive)	4.11 µM (inactive)	2.96 µM (inactive)	1.55 µM (inactive)	2.26 µM (inactive)	14.1 µM (inactive)	4.15 µM (inactive)
Oc1cccc(-c2nc3ccccc3s2)c1	15.8 µM (inactive)	26.2 µM (inactive)	28.4 µM (inactive)	15.5 µM (inactive)	19.8 µM (inactive)	32.1 µM (inactive)	47.8 µM (inactive)	14.7 µM (inactive)	14.8 µM (inactive)	57.9 µM (inactive)	17.6 µM (inactive)	57 µM (inactive)	5.02 µM (inactive)	26.4 µM (inactive)	22.5 µM (inactive)	27.9 µM (inactive)	26.7 µM (inactive)	23.2 µM (inactive)	74.6 µM (inactive)	23.9 µM (inactive)
NN=C(S)Nc1cccc(Cl)c1	> 100 µM (inactive)	> 100 µM (inactive)	79.4 µM (inactive)	> 100 µM (inactive)	> 100 µM (inactive)	> 100 µM (inactive)	> 100 µM (inactive)	82 µM (inactive)	> 100 µM (inactive)	> 100 µM (inactive)	95.9 µM (inactive)	25.8 µM (inactive)	> 100 µM (inactive)	> 100 µM (inactive)	> 100 µM (inactive)	> 100 µM (inactive)	69.2 µM (inactive)	88.7 µM (inactive)	> 100 µM (inactive)	> 100 µM (inactive)
O=C(CCCN1CCC(C(O)c2ccc(F)cc2)CC1)c1ccc(F)cc1 (stereo not given)	66.5 µM (inactive)	64 µM (inactive)	57.4 µM (inactive)	46.1 µM (inactive)	59.6 µM (inactive)	41.1 µM (inactive)	35.9 µM (inactive)	56.6 µM (inactive)	58.2 µM (inactive)	61.8 µM (inactive)	66.8 µM (inactive)	76.2 µM (inactive)	61.9 µM (inactive)	60.7 µM (inactive)	62.8 µM (inactive)	69.8 µM (inactive)	63.5 µM (inactive)	51.6 µM (inactive)	59.3 µM (inactive)	53.7 µM (inactive)
CN(CC(=O)O)c1ncc2c(n1)-c1ccccc1OC2c1ccccc1 (stereo not given)	51.6 µM (inactive)	76.4 µM (inactive)	87.7 µM (inactive)	> 100 µM (inactive)	> 100 µM (inactive)	56.1 µM (inactive)	33.2 µM (inactive)	79.6 µM (inactive)	> 100 µM (inactive)	> 100 µM (inactive)	> 100 µM (inactive)	44.3 µM (inactive)	> 100 µM (inactive)	> 100 µM (inactive)	> 100 µM (inactive)	> 100 µM (inactive)	> 100 µM (inactive)	> 100 µM (inactive)	> 100 µM (inactive)	> 100 µM (inactive)
COc1ccc(CC2COc3cc(O)cc(O)c3C2=O)cc1O (stereo not given)	16.6 µM (inactive)	11.9 µM (inactive)	3.81 µM (inactive)	2.4 µM (inactive)	14.7 µM (inactive)	24.5 µM (inactive)	2.4 µM (inactive)	2.81 µM (inactive)	12.3 µM (inactive)	3.56 µM (inactive)	4.7 µM (inactive)	3.4 µM (inactive)	4.23 µM (inactive)	> 100 µM (inactive)	5.13 µM (inactive)	5.64 µM (inactive)	4.3 µM (inactive)	3.86 µM (inactive)	3.75 µM (inactive)	4.88 µM (inactive)
COc1ccc2nc3cc(Cl)ccc3c(NCCCCCC(=O)NC(COc3ccc4ccc5cccnc5c4n3)COc3ccc4ccc5cccnc5c4n3)c2c1	21.4 µM (inactive)	15.5 µM (inactive)	25.3 µM (inactive)	29 µM (inactive)	17.9 µM (inactive)	19.8 µM (inactive)	9.64 µM (inactive)	27.9 µM (inactive)	24.4 µM (inactive)	12 µM (inactive)	24.1 µM (inactive)	2.28 µM (inactive)	16.3 µM (inactive)	21.7 µM (inactive)	> 100 µM (inactive)	36.9 µM (inactive)	29.8 µM (inactive)	26.7 µM (inactive)	24.2 µM (inactive)	25.3 µM (inactive)
Cn1c(=O)c2[nH]c(/N=N/N3CCN(CCO)CC3)nc2n(C)c1=O	> 100 µM (inactive)	> 100 µM (inactive)	> 100 µM (inactive)	> 100 µM (inactive)	> 100 µM (inactive)	> 100 µM (inactive)	> 100 µM (inactive)	> 100 µM (inactive)	> 100 µM (inactive)	> 100 µM (inactive)	> 100 µM (inactive)	> 100 µM (inactive)	> 100 µM (inactive)	> 100 µM (inactive)	> 100 µM (inactive)	> 100 µM (inactive)	> 100 µM (inactive)	> 100 µM (inactive)	> 100 µM (inactive)	> 100 µM (inactive)
CSC1(C)C(=O)Nc2c(OCc3ccccc3)cc([N+](=O)[O-])cc21 (stereo not given)	75.9 µM (inactive)	21.5 µM (inactive)	38.7 µM (inactive)	17.7 µM (inactive)	31.6 µM (inactive)	51.3 µM (inactive)	40.7 µM (inactive)	96.8 µM (inactive)	63 µM (inactive)	71.6 µM (inactive)	94.8 µM (inactive)	84.3 µM (inactive)	54.8 µM (inactive)	> 100 µM (inactive)	> 100 µM (inactive)	> 100 µM (inactive)	57.1 µM (inactive)	29.8 µM (inactive)	75.3 µM (inactive)	75.3 µM (inactive)
Nn1c(S)nnc1COc1cccc(OCc2nnc(S)n2N)c1	> 100 µM (inactive)	> 100 µM (inactive)	> 100 µM (inactive)	> 100 µM (inactive)	> 100 µM (inactive)	> 100 µM (inactive)	86.3 µM (inactive)	> 100 µM (inactive)	> 100 µM (inactive)	40 µM (inactive)	65.3 µM (inactive)	30.7 µM (inactive)	> 100 µM (inactive)	> 100 µM (inactive)	> 100 µM (inactive)	> 100 µM (inactive)	> 100 µM (inactive)	> 100 µM (inactive)	> 100 µM (inactive)	> 100 µM (inactive)
Cc1ccc(O)c(C(c2ccc([N+](=O)[O-])cc2)c2cc(C)ccc2O)c1	7.93 µM (inactive)	9.66 µM (inactive)	11.5 µM (inactive)	7.69 µM (inactive)	5.57 µM (inactive)	8.09 µM (inactive)	1.47 µM (inactive)	7.35 µM (inactive)	14.6 µM (inactive)	13.5 µM (inactive)	12.3 µM (inactive)	10.8 µM (inactive)	11 µM (inactive)	14.6 µM (inactive)	10.8 µM (inactive)	15.1 µM (inactive)	14.5 µM (inactive)	11.7 µM (inactive)	16.6 µM (inactive)	15.1 µM (inactive)
Cn1c(=O)c2nc3sc4c(n3c2n(C)c1=O)C(=O)c1ccccc1C4=O	57.3 µM (inactive)	> 81.7 µM (inactive)	> 55.5 µM (inactive)	23.3 µM (inactive)	> 78.5 µM (inactive)	> 26.5 µM (inactive)	11.2 µM (inactive)	> 100 µM (inactive)	> 100 µM (inactive)	> 66.5 µM (inactive)	11 µM (inactive)	17.6 µM (inactive)	> 54.3 µM (inactive)	> 88.9 µM (inactive)	> 38.9 µM (inactive)	> 47.5 µM (inactive)	> 72.3 µM (inactive)	> 100 µM (inactive)	> 75 µM (inactive)	> 78.9 µM (inactive)
CC1(C)[C@H](C(=O)O)N2C(=O)[C@@H](NS(=O)(=O)c3ccc([N+](=O)[O-])cc3)[C@H]2S1(=O)=O	> 100 µM (inactive)	> 100 µM (inactive)	> 100 µM (inactive)	> 100 µM (inactive)	> 100 µM (inactive)	> 100 µM (inactive)	> 100 µM (inactive)	> 100 µM (inactive)	> 100 µM (inactive)	> 100 µM (inactive)	> 100 µM (inactive)	> 100 µM (inactive)	> 100 µM (inactive)	> 100 µM (inactive)	> 100 µM (inactive)	> 100 µM (inactive)	> 100 µM (inactive)	> 100 µM (inactive)	> 100 µM (inactive)	> 100 µM (inactive)
FC(F)(F)c1ccc(/N=N/N2CCCC2)cc1	65.8 µM (inactive)	> 100 µM (inactive)	> 100 µM (inactive)	> 100 µM (inactive)	> 100 µM (inactive)	> 100 µM (inactive)	> 100 µM (inactive)	5.31 µM (inactive)	> 100 µM (inactive)	> 100 µM (inactive)	> 100 µM (inactive)	> 100 µM (inactive)	> 100 µM (inactive)	> 100 µM (inactive)	> 100 µM (inactive)	> 100 µM (inactive)	> 100 µM (inactive)	> 100 µM (inactive)	> 100 µM (inactive)	> 100 µM (inactive)

Source: ChEMBL document CHEMBL1201862, “PubChem BioAssay data set” (2004)
